Experimental data reported in patent US5036077A, “1-(benzylpiperidino)propan-2-ol derivatives, their preparation, their use as antimicrobial agents and the products in which they are present” (Sanofi, priority 1987, dated 1991).
≈ marks a conversion by molar mass, not a printed value.

Assays:
Format in all cases: cell-based
[1] = tested on: Pseudomonas aeruginosa CNCM A22; assay: Minimum bactericidal concentration, 30 min contact, strain 3; conditions: Pseudomonas aeruginosa CNCM A22, contact time 30 minutes, solubilizing agent given per product; for MBC: CNCMA22, 0.5 h, read-out: MBC, strain 3
Description: (§1) A bacterial inoculum is brought into contact with different dilutions of the test product for a limited time of 30 minutes. When the contact time has ended, an aliquot of the bacterial suspension/product mixture is deposited on the surface of a gelose culture medium containing an agent for neutralizing the antibacterial activity of the product. The bactericidal concentration chosen is the minimum concentration of the product which is necessary to prevent bacterial growth. This concentration is expressed in μg/ml.
3 - Pseudomonas aeruginosa CNCM A22;
(§2) The strains are maintained on Tryptic Soy Agar (TSA) marketed by Difco.
(§3) After 24 hours of culture at 37° C., the microbial growth is harvested with the aid of glass beads and 10 ml of diluent containing 1 g of tryptone and 8.5 g of sodium chloride in 1000 ml of distilled water. The suspension formed is shaken and the percentage transmission of light at 620 nm is measured on a spectrophotometer:
(§4) The bacterial inoculum corresponds to a 1/20 dilution of this bacterial suspension.
(§5) Plates containing cups receive different dilutions of the test product. These dilutions of the test product are brought into contact with the different bacterial suspensions using a multiple-site inoculator. After a contact time of 30 minutes, aliquots are transferred by means of this inoculator to the surface of a gelose medium (TSA) placed in petri dishes and containing an agent for neutralizing the activity, namely 20 g of lubrol W, 2.5 g of Tween 80, 2.5 g of sodium thiosulfate and 1% of egg yolk in 1000 ml of TSA (Difco). A reference for the efficacy of the neutralizing agent is prepared for each test product by depositing an aliquot of the dilution of the test product on the surface of the culture medium. After drying, the corresponding inoculum is deposited in the same place. A reference inoculum is prepared on a gelose medium with and without neutralizing agent. The results are read off after 48 hours of incubation at 37° C.
(§6) They indicate the minimum bactericidal concentrations (MBC) for strains 1, 2, 3 and 4 and the minimum fungicidal concentrations (MFC) for strain 5.

[2] = tested on: Streptococcus faecalis CNCM 5855; assay: Minimum bactericidal concentration, 30 min contact, strain 2; conditions: Streptococcus faecalis CNCM 5855, contact time 30 minutes, solubilizing agent given per product; for MBC: Enterococcus faecalis, CNCM5855, 0.5 h, read-out: MBC, strain 2
Description: as §1
2 - Streptococcus faecalis CNCM 5855;
as §2, §3, §4, §5, §6

[3] = tested on: Candida albicans CNCM 1180; assay: Minimum fungicidal concentration, strain 5; conditions: Candida albicans CNCM 1180, contact time 30 minutes, solubilizing agent given per product; for MFC: CNCM1180, 0.5 h, read-out: MFC, strain 5
Description: as §1, §5
The antifungal activity of the products according to the invention was also determined using the method described above. The representative strain of yeast selected for the study was Candida albicans CNCM 1180 (strain 5).
This is maintained on a gelose medium of Sabouraud Dextrose Agar, marketed by Difco. The technique is identical to that described for studying the antibacterial activity. After 48 hours of culture at 37° C., the microbial growth is harvested with the aid of glass beads and 5 ml of diluent containing 1 g of tryptone and 8.5 g of sodium chloride in 1000 ml of distilled water; a further 5 ml of the diluent are then added. In a spectrophotometer, this suspension gives a 2 to 3% transmission of light at 620 nm. The inoculum corresponds to a 1/10 dilution of this microbial suspension. A 1/100 dilution of this suspension, observed between a microscope slide and cover slip through a lens of magnification 40, should show 10 cells per field, which corresponds to 1 000 000 yeasts per ml.
as §6

[4] = tested on: Escherichia coli CNCM 54127; assay: Minimum bactericidal concentration, 30 min contact, strain 4; conditions: Escherichia coli CNCM 54127, contact time 30 minutes, solubilizing agent given per product; for MBC: CNCM54127, 0.5 h, read-out: MBC, strain 4
Description: as §1
4 - Escherichia coli CNCM 54127.
as §2, §3, §4, §5, §6

[5] = tested on: Staphylococcus aureus CNCM 53154; assay: Minimum bactericidal concentration, 30 min contact, strain 1; conditions: Staphylococcus aureus CNCM 53154, contact time 30 minutes, solubilizing agent (water, TEG or acetone) given per product; for MBC: CNCM53154, 0.5 h, read-out: MBC, strain 1
Description: as §1
1 - Staphylococcus aureus CNCM 53154;
as §2, §3, §4, §5, §6

Row | Structure (SMILES) | MBC [1] | MBC [2] | MFC [3] | MBC [4] | MBC [5] | MBC, strain 3 [1] | MBC, strain 2 [2] | MFC, strain 5 [3] | MBC, strain 4 [4] | MBC, strain 1 [5]
1 | OC(COc1ccc(Cl)c(Cl)c1)CN1CCC(Cc2ccc(Cl)cc2)CC1 (racemic) [SR 45553 A] | 50 µg/mL (≈ 117 µM) | 50 µg/mL (≈ 117 µM) | 50 µg/mL (≈ 117 µM) | 10 µg/mL (≈ 23.3 µM) | 10 µg/mL (≈ 23.3 µM) | – | – | – | – | –
2 | OC(COc1ccc(Cl)cc1Cl)CN1CCC(Cc2ccccc2)CC1 (racemic) [SR 44333 B, 1-(4-Benzylpiperidino)-3-(2,4-dichlorophenoxy)propan-2-ol methanesulfonate] | 50 µg/mL | 50 µg/mL | 50 µg/mL | 50 µg/mL | 50 µg/mL | – | – | – | – | –
3 | OC(COc1ccc2ccccc2c1)CN1CCC(Cc2ccccc2)CC1 (racemic) [SR 44807 A] | 200 µg/mL (≈ 533 µM) | 1000 µg/mL (≈ 2660 µM) | 1000 µg/mL (≈ 2660 µM) | 200 µg/mL (≈ 533 µM) | 1000 µg/mL (≈ 2660 µM) | – | – | – | – | –
4 | OC(COc1ccc(Cl)c(Cl)c1)CN1CCC(Cc2ccccc2)CC1 (racemic) [SR 45551 A] | 50 µg/mL (≈ 127 µM) | 50 µg/mL (≈ 127 µM) | > 200 µg/mL | 50 µg/mL (≈ 127 µM) | > 200 µg/mL | – | – | – | – | –
5 | OC(CSc1ccc(Cl)c(Cl)c1)CN1CCC(Cc2ccccc2)CC1 (racemic) [SR 44473 A] | 50 µg/mL (≈ 122 µM) | 50 µg/mL (≈ 122 µM) | 50 µg/mL (≈ 122 µM) | 50 µg/mL (≈ 122 µM) | 1000 µg/mL (≈ 2440 µM) | – | – | – | – | –
6 | OC(COc1ccc(-c2ccccc2)cc1)CN1CCC(Cc2ccccc2)CC1 (racemic) [SR 44715 A] | 50 µg/mL (≈ 125 µM) | 50 µg/mL (≈ 125 µM) | 200 µg/mL (≈ 498 µM) | 50 µg/mL (≈ 125 µM) | 50 µg/mL (≈ 125 µM) | – | – | – | – | –
7 | Cl.OC(COc1ccc(Cl)cc1Cl)CN1CCC(Cc2ccccc2)CC1 (stereo not drawn) [SR 44333 A, 1-(4-Benzylpiperidino)-3-(2,4-dichlorophenoxy)propan-2-ol hydrochloride] | 50 µg/mL | 100 µg/mL | – | 50 µg/mL | 100 µg/mL | – | – | – | – | –
8 | Cl.OC(COc1ccc2ccccc2c1Br)CN1CCC(Cc2ccccc2)CC1 (stereo not drawn) [SR 44716 A, 1-(4-Benzylpiperidino)-3-(1-bromonaphth-2-yloxy)propan-2-ol hydrochloride] | 10 µg/mL | 50 µg/mL | 50 µg/mL | 10 µg/mL | 50 µg/mL | – | – | – | – | –
9 | OC(COc1cccc2ccccc12)CN1CCC(Cc2ccc(Cl)cc2)CC1 (racemic) [SR 44999 A] | ≤ 10 µg/mL | ≤ 10 µg/mL | ≤ 10 µg/mL | ≤ 10 µg/mL | 50 µg/mL (≈ 122 µM) | – | – | – | – | –
10 | OC(COc1ccc(Br)cc1)CN1CCC(Cc2ccccc2)CC1 (racemic) [SR 44251 A] | 100 µg/mL (≈ 247 µM) | 100 µg/mL (≈ 247 µM) | – | 100 µg/mL (≈ 247 µM) | 100 µg/mL (≈ 247 µM) | – | – | – | – | –
11 | CS(=O)(=O)O.OC(COc1ccc(Cl)cc1Cl)CN1CCCC(Cc2ccccc2)C1 (stereo not drawn) [SR 44957 A, 1-(3-Benzylpiperidino)-3-(2,4-dichlorophenoxy)propan-2-ol methanesulfonate] | – | – | – | – | – | ≤ 10 µg/mL | ≤ 10 µg/mL | 50 µg/mL | ≤ 10 µg/mL | 50 µg/mL
12 | CC(C)(C)c1ccc(OCC(O)CN2CCC(Cc3ccccc3)CC2)cc1 (racemic) [SR 44648 A] | 50 µg/mL (≈ 131 µM) | 200 µg/mL (≈ 524 µM) | 200 µg/mL (≈ 524 µM) | 50 µg/mL (≈ 131 µM) | 200 µg/mL (≈ 524 µM) | – | – | – | – | –
13 | OC(COc1ccccc1-c1ccccc1)CN1CCC(Cc2ccccc2)CC1 (racemic) [SR 44676 A] | 10 µg/mL (≈ 24.9 µM) | 50 µg/mL (≈ 125 µM) | 50 µg/mL (≈ 125 µM) | 10 µg/mL (≈ 24.9 µM) | 200 µg/mL (≈ 498 µM) | – | – | – | – | –
14 | OC(COc1ccc(Cl)cc1Cc1ccccc1)CN1CCC(Cc2ccccc2)CC1 (racemic) [SR 44719 B] | 10 µg/mL (≈ 22.2 µM) | 5 µg/mL (≈ 11.1 µM) | 10 µg/mL (≈ 22.2 µM) | 5 µg/mL (≈ 11.1 µM) | 10 µg/mL (≈ 22.2 µM) | – | – | – | – | –
15 | Cl.OC(COc1ccc(Cl)cc1Cc1ccccc1)CN1CCC(Cc2ccccc2)CC1 (stereo not drawn) [SR 44719 A, 3-(2-Benzyl-4-chlorophenoxy)-1-(4-benzylpiperidino)propan-2-ol hydrochloride] | 10 µg/mL | 10 µg/mL | 50 µg/mL | 5 µg/mL | 10 µg/mL | – | – | – | – | –
16 | OC(COc1cc(Cl)c(Cl)cc1Cl)CN1CCC(Cc2ccccc2)CC1 (racemic) [SR 44560 A] | 50 µg/mL (≈ 117 µM) | 50 µg/mL (≈ 117 µM) | 50 µg/mL (≈ 117 µM) | 5 µg/mL (≈ 11.7 µM) | 10 µg/mL (≈ 23.3 µM) | – | – | – | – | –
17 | OC(CSc1ccc(Cl)c(Cl)c1)CN1CCC(Cc2ccc(Cl)cc2)CC1 (racemic) [SR 45077 A] | 50 µg/mL (≈ 112 µM) | 10 µg/mL (≈ 22.5 µM) | 50 µg/mL (≈ 112 µM) | 10 µg/mL (≈ 22.5 µM) | 50 µg/mL (≈ 112 µM) | – | – | – | – | –
18 | OC(CSc1cccc(Br)c1)CN1CCC(Cc2ccccc2)CC1 (racemic) [SR 45204 A] | 50 µg/mL (≈ 119 µM) | > 200 µg/mL | > 200 µg/mL | 50 µg/mL (≈ 119 µM) | > 200 µg/mL | – | – | – | – | –
19 | OC(CSc1ccc(Cl)c(Cl)c1)CN1CCCC(Cc2ccccc2)C1 (single isomer, unassigned) [SR 45236 A] | 50 µg/mL (≈ 122 µM) | 50 µg/mL (≈ 122 µM) | > 200 µg/mL | 50 µg/mL (≈ 122 µM) | > 200 µg/mL | – | – | – | – | –
20 | OC(COc1cc(Cl)ccc1Oc1ccc(Cl)cc1Cl)CN1CCC(Cc2ccccc2)CC1 (racemic) [SR 44641 A] | 10 µg/mL (≈ 19.2 µM) | 10 µg/mL (≈ 19.2 µM) | 50 µg/mL (≈ 96 µM) | 5 µg/mL (≈ 9.6 µM) | 50 µg/mL (≈ 96 µM) | – | – | – | – | –
21 | OC(COc1cccc2ccccc12)CN1CCC(Cc2ccccc2)CC1 (racemic) [SR 44644 A] | 50 µg/mL (≈ 133 µM) | 50 µg/mL (≈ 133 µM) | 50 µg/mL (≈ 133 µM) | 50 µg/mL (≈ 133 µM) | 50 µg/mL (≈ 133 µM) | – | – | – | – | –
22 | OC(CSc1ccc(Cl)c(Cl)c1)CN1CCCC(Cc2ccccc2)C1 (single isomer, unassigned) [SR 45237 A] | – | – | – | – | – | – | 50 µg/mL (≈ 122 µM) | > 200 µg/mL | – | > 200 µg/mL
23 | Cl.OC(CSc1ccc(Br)cc1)CN1CCC(Cc2ccccc2)CC1 (stereo not drawn) [SR 44444 A, 1-(4-Benzylpiperidino)-3-(4-bromophenylthio)propan-2-ol hydrochloride] | 50 µg/mL | 50 µg/mL | – | 50 µg/mL | 50 µg/mL | – | – | – | – | –
24 | OC(CSc1ccc(Br)cc1)CN1CCC(Cc2ccc(Cl)cc2)CC1 (racemic) [SR 45076 A] | 50 µg/mL (≈ 110 µM) | 10 µg/mL (≈ 22 µM) | 50 µg/mL (≈ 110 µM) | 10 µg/mL (≈ 22 µM) | 50 µg/mL (≈ 110 µM) | – | – | – | – | –
25 | OC(COc1ccc(F)cc1F)CN1CCC(Cc2ccccc2)CC1 (racemic) [SR 44971 A] | 1000 µg/mL (≈ 2770 µM) | 1000 µg/mL (≈ 2770 µM) | 1000 µg/mL (≈ 2770 µM) | 1000 µg/mL (≈ 2770 µM) | 1000 µg/mL (≈ 2770 µM) | – | – | – | – | –
26 | OC(COc1cc(Br)c2ccccc2c1)CN1CCC(Cc2ccccc2)CC1 (racemic) [SR 44674 A] | 10 µg/mL (≈ 22 µM) | 10 µg/mL (≈ 22 µM) | 200 µg/mL (≈ 440 µM) | 10 µg/mL (≈ 22 µM) | 10 µg/mL (≈ 22 µM) | – | – | – | – | –
27 | OC(COc1ccc(Cl)cc1)CN1CCC(Cc2ccccc2)CC1 (racemic) [SR 44334 A] | 100 µg/mL (≈ 278 µM) | 100 µg/mL (≈ 278 µM) | – | 100 µg/mL (≈ 278 µM) | 500 µg/mL (≈ 1390 µM) | – | – | – | – | –
